Patent US6694171B1, “X-ray imaging of tumors with dextran carrier of platinum compounds” (Yeda Research and Development, priority 1997, dated 2004)

Experiment: Interaction between CDDP and ADH or hydrazine by OPDA colour reaction (FIGS. 4A-4B)
Assay type: physicochemical
Conditions: 6 μg CDDP, OPDA 4 mg/ml
Method: The absorbance at 703 nm was determined (FIG. 4A).

NNC(=O)CCCCC(=O)NN [ADH, adipic acid dihydrazide]
leveling-off ratio ligand:CDDP: 20
